Eleven compounds from ChEMBL document CHEMBL1201862, “PubChem BioAssay data set” (2004) can be followed below.

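1) Cells in 96-well plates. 2) Compound, 48 h, 5 concentrations. 3) Linear interpolation between surrounding doses. 4) Unreached endpoint = highest concentration. The concentration for 50% growth inhibition is given as GI50.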 Active and inactive are the calls of the source. No stated cut-off is given here; in the data, active = GI50 up to about 1.1 µM and inactive = higher.

Some test systems named below: COLO 205; HCT-15; HL-60; HT-29; K562; MDA-MB-231; MDA-N; MOLT-4; NCI-H226; NCI-H23; NCI-H460; OVCAR-3; OVCAR-4; OVCAR-5; RXF 393; SF-295; SK-MEL-2; TK-10; HOP-92; A498.
Holding throughout (assay): growth of human tumour cells (NCI), 48 h

For the compound `Cc1cc2nc3ccccc3n2c2ccccc12`, the GI50 is > 10 µM (inactive) with COLO 205; greater than 10 µM with HCT-15; > 10 µM (inactive) in the experiment with HL-60; > 10 µM (inactive) in the experiment with HT-29; > 10 µM (inactive) in the experiment on K562; > 10 µM (inactive) in the experiment with MDA-MB-231. Moreover, the GI50 was > 10 µM (inactive) with MDA-N; > 10 µM (inactive) in the experiment on MOLT-4; 6.17 µM (inactive) in the experiment with NCI-H226; > 10 µM (inactive) with NCI-H23; 4.3 µM (inactive) in the experiment with NCI-H460; > 10 µM (inactive) with OVCAR-3. Further, the GI50 with OVCAR-4, in the experiment with OVCAR-5, with RXF 393, in the experiment on SF-295, in the experiment with SK-MEL-2 and in the experiment on TK-10 was > 10 µM (inactive) throughout.
`Cc1cc(=O)oc2c(C)c3oc(CBr)c(Br)c3cc12`: the GI50 with COLO 205 is 28.2 µM (inactive); in the experiment on HCT-15 it was 30.1 µM; with HL-60, 85.1 µM (inactive); in the experiment with HT-29, 39.2 µM (inactive); with K562 it was 19.6 µM (inactive); in the experiment with MDA-MB-231, 87.3 µM (inactive). Also, the GI50 in the experiment on MDA-N was 30.4 µM (inactive); in the experiment on MOLT-4, 8.59 µM (inactive); in the experiment with NCI-H226 it was 30 µM (inactive); in the experiment with NCI-H23, 39 µM (inactive); with NCI-H460, 18.9 µM (inactive); in the experiment with OVCAR-3 it was > 100 µM (inactive). Also, the GI50 with OVCAR-4 was 28.5 µM (inactive); in the experiment with OVCAR-5, 27.4 µM (inactive); in the experiment on RXF 393 it was 19.8 µM (inactive); in the experiment on SF-295 it was 17.2 µM (inactive); with SK-MEL-2 it was 36.1 µM (inactive); in the experiment on TK-10, 56.4 µM (inactive).
Turning to `[N-]=[N+]=Nc1c(Cl)c(=O)n(-c2ccccc2)c2ccccc12`, the GI50 in the experiment with COLO 205 was 25.8 µM (inactive); in the experiment with HCT-15, 20.7 µM; in the experiment on HL-60, 40.3 µM (inactive); in the experiment on HOP-92, 19.3 µM (inactive); in the experiment on HT-29, 23.2 µM (inactive); with K562, 14.8 µM (inactive). Besides, the GI50 in the experiment with MDA-N was 24.5 µM (inactive); in the experiment with MOLT-4, 8.43 µM (inactive); in the experiment with NCI-H23, 19.6 µM (inactive); with NCI-H460 it was 34.8 µM (inactive); in the experiment on OVCAR-3, 17.3 µM (inactive); in the experiment with OVCAR-4, 17.4 µM (inactive). Further, the GI50 in the experiment with OVCAR-5 was 24.3 µM (inactive); in the experiment with RXF 393, 16.4 µM (inactive); with SF-295, 30.7 µM (inactive); with SK-MEL-2 it was 20.7 µM (inactive); with TK-10 it was > 10 µM (inactive).
Regarding `CC(C)(C)OC(=O)N1CCCC1C(=O)NCCNc1ccc(NCCNC(=O)C2CCCN2C(=O)OC(C)(C)C)c2c1C(=O)c1ccccc1C2=O` (stereo not given), the GI50 in the experiment with COLO 205 was 14.4 µM (inactive); in the experiment with HCT-15 it was 13.9 µM; in the experiment on HL-60, > 100 µM (inactive); in the experiment with HOP-92, 13.8 µM (inactive); in the experiment with HT-29 it was 13.7 µM (inactive); in the experiment with K562, < 0.01 µM (active). Besides, the GI50 is 13.2 µM (inactive) in the experiment on MDA-MB-231; 9.86 µM (inactive) in the experiment with MOLT-4; 18.5 µM (inactive) in the experiment on NCI-H226; 15.6 µM (inactive) in the experiment with NCI-H23; 14.1 µM (inactive) in the experiment with OVCAR-3; 15 µM (inactive) with OVCAR-4. Besides, the GI50 in the experiment on OVCAR-5 was 16.7 µM (inactive); with SF-295 it was 18 µM (inactive); in the experiment on SK-MEL-2, 20.7 µM (inactive); in the experiment with TK-10 it was 19.1 µM (inactive).
`CCOC(=O)c1c2c(n(-c3ccc(C)cc3)c1C)-c1ccccc1C(=O)C2(C(=O)OCC)C(=O)OCC`: the GI50 is 46.6 µM (inactive) in the experiment with A498; 45.3 µM (inactive) in the experiment on COLO 205; 36.1 µM with HCT-15; 6.34 µM (inactive) in the experiment with HL-60; 27.6 µM (inactive) in the experiment on HOP-92; 27.3 µM (inactive) in the experiment on HT-29. In addition, the GI50 in the experiment with K562 is 14.5 µM (inactive); with MDA-MB-231, 32.1 µM (inactive); in the experiment on MOLT-4, 1.71 µM (inactive); in the experiment with NCI-H226, 55 µM (inactive); with NCI-H23, 57.5 µM (inactive); in the experiment with NCI-H460, 35.5 µM (inactive). For the same compound, the GI50 in the experiment on OVCAR-3 is 25.3 µM (inactive); in the experiment with OVCAR-4 it was 30.8 µM (inactive); with OVCAR-5, 74 µM (inactive); in the experiment on RXF 393 it was 26.5 µM (inactive); with SF-295 it was 37.9 µM (inactive); in the experiment with SK-MEL-2, 36.3 µM (inactive). Moreover, the GI50 with TK-10 was 59.2 µM (inactive).
On to `OC(C1CCCCCCCCCC1)C(O)C1CCCCCCCCCC1` (stereo not given), for which the GI50 was > 100 µM (inactive) in the experiment on COLO 205; greater than 100 µM in the experiment on HCT-15; > 100 µM (inactive) in the experiment with HL-60; > 100 µM (inactive) in the experiment on HT-29; 55.1 µM (inactive) in the experiment with K562; > 100 µM (inactive) in the experiment on MDA-MB-231. The GI50 was > 100 µM (inactive) in the experiment with MDA-N; 37.1 µM (inactive) in the experiment on MOLT-4; > 100 µM (inactive) in the experiment with NCI-H226; 43.2 µM (inactive) with NCI-H23; > 100 µM (inactive) in the experiment with NCI-H460; > 100 µM (inactive) with OVCAR-3. For the same compound, the GI50 with OVCAR-4 is > 100 µM (inactive); in the experiment with OVCAR-5 it was > 100 µM (inactive); with RXF 393 it was 93.1 µM (inactive); in the experiment with SF-295, > 100 µM (inactive); in the experiment on SK-MEL-2, > 100 µM (inactive); with TK-10, > 100 µM (inactive).
For the compound `COc1ccc(/C=C2\CCC(CNc3ccc(S(N)(=O)=O)cc3)C2=O)cc1` (stereo not given), the GI50 is 44.4 µM (inactive) in the experiment on A498; 16.6 µM (inactive) in the experiment on COLO 205; 4.71 µM in the experiment on HCT-15; 2.15 µM (inactive) in the experiment with HL-60; 8.53 µM (inactive) with HOP-92; 10.2 µM (inactive) in the experiment on HT-29. Moreover, the GI50 in the experiment with K562 was 1.51 µM (inactive); in the experiment on MDA-MB-231, 16.6 µM (inactive); in the experiment on MOLT-4, 7.69 µM (inactive); with NCI-H226, > 69.5 µM (inactive); in the experiment with NCI-H23 it was 19.7 µM (inactive); in the experiment with NCI-H460 it was 31.3 µM (inactive). Besides, the GI50 in the experiment on OVCAR-3 was 9.04 µM (inactive); in the experiment with OVCAR-4, 31.6 µM (inactive); in the experiment with OVCAR-5, 21.6 µM (inactive); with RXF 393, 20.4 µM (inactive); in the experiment on SF-295, > 67.3 µM (inactive); in the experiment with SK-MEL-2, 75.7 µM (inactive). Besides, the GI50 with TK-10 was 14.3 µM (inactive).
Consider `O=[N+]([O-])c1cc(Cl)cc2cc(Cl)cnc12`, for which the GI50 in the experiment on A498 was 48 µM (inactive); in the experiment with COLO 205 it was > 100 µM (inactive); with HCT-15 it was greater than 100 µM; in the experiment on HL-60, 62.4 µM (inactive); in the experiment with HOP-92 it was > 100 µM (inactive); with HT-29 it was > 100 µM (inactive). In addition, the GI50 is > 100 µM (inactive) in the experiment on K562; 60.1 µM (inactive) in the experiment with MDA-MB-231; > 100 µM (inactive) with MOLT-4; > 100 µM (inactive) with NCI-H226; > 100 µM (inactive) with NCI-H23; > 100 µM (inactive) in the experiment on NCI-H460. The GI50 is > 100 µM (inactive) in the experiment with OVCAR-3; 35.7 µM (inactive) with OVCAR-4; > 100 µM (inactive) in the experiment on OVCAR-5; > 100 µM (inactive) with RXF 393; > 100 µM (inactive) in the experiment on SF-295; > 100 µM (inactive) in the experiment on TK-10.
As for `NCCCNc1ccc2c3c(nn2CCNCCO)-c2c(O)ccc(O)c2C(=O)c13`, the GI50 is 1.82 µM (inactive) in the experiment with A498; 1.44 µM (inactive) with COLO 205; 5.01 µM in the experiment with HCT-15; 3.68 µM (inactive) in the experiment on HT-29; 3.84 µM (inactive) in the experiment on MDA-MB-231; 2.75 µM (inactive) with MDA-N. Further, the GI50 with MOLT-4 was 0.21 µM (active); in the experiment with NCI-H226 it was 0.406 µM (active); in the experiment with NCI-H23, 1.25 µM (inactive); in the experiment with OVCAR-3 it was 5.13 µM (inactive); in the experiment with OVCAR-4 it was 3.93 µM (inactive); in the experiment on OVCAR-5 it was 4.28 µM (inactive). The GI50 is 0.889 µM (active) in the experiment on SF-295 and 4.2 µM (inactive) in the experiment with TK-10.
Regarding `O=C(O)c1cc(-c2ccc(-c3ccccc3)cc2)nc2cc3ccccc3cc12`, the GI50 in the experiment on A498 is > 100 µM (inactive); with COLO 205 it was 54.7 µM (inactive); with HCT-15, 8.15 µM; in the experiment with HL-60, 19.1 µM (inactive); in the experiment on HOP-92, 28.2 µM (inactive); in the experiment with HT-29 it was 38 µM (inactive). Moreover, the GI50 was 14.2 µM (inactive) in the experiment with K562; 21.2 µM (inactive) in the experiment on MDA-MB-231; 11.6 µM (inactive) in the experiment on MOLT-4; 35.7 µM (inactive) in the experiment with NCI-H226; 36.8 µM (inactive) with NCI-H23; 6.35 µM (inactive) in the experiment with NCI-H460. For the same compound, the GI50 in the experiment with OVCAR-3 is 47.9 µM (inactive); with OVCAR-4, 29.4 µM (inactive); with OVCAR-5, > 100 µM (inactive); in the experiment with RXF 393, 27.7 µM (inactive); with SF-295, 34.8 µM (inactive); in the experiment on SK-MEL-2, 82 µM (inactive). Further, in the experiment on TK-10, the GI50 was 58.2 µM (inactive).
`CCCC[N+](CCCC)(CCCC)CCCC.O=S(=O)([O-])ON=C1c2ccccc2-c2ccccc21`: the GI50 in the experiment with A498 is > 100 µM (inactive); with COLO 205, > 100 µM (inactive); in the experiment on HCT-15, 10 µM; in the experiment on HL-60, 36 µM (inactive); in the experiment on HOP-92, > 100 µM (inactive); in the experiment with HT-29, > 100 µM (inactive). The GI50 in the experiment with K562, in the experiment on MDA-MB-231, with MOLT-4, in the experiment with NCI-H226, with NCI-H23 and with NCI-H460 was > 100 µM (inactive) in each case. The GI50 in the experiment with OVCAR-3, in the experiment with OVCAR-4, in the experiment with OVCAR-5, in the experiment on RXF 393, in the experiment with SF-295 and in the experiment on SK-MEL-2 was > 100 µM (inactive) throughout. For the same compound, the GI50 in the experiment on TK-10 is > 100 µM (inactive).
